Here are results for five molecules from US20030232040A1, “Biocidal methods and compositions” (SureCide Technologies, LLC, priority 2000, published 2003).

This assay concerns Escherichia coli (ATCC strain #25404). Nature of the assay: High-throughput 96-well liquid outgrowth system for the measurement of bacterial cell killing. It is filed as cell-based. Particulars: for antimicrobial effectiveness: 1 mM FeCl2 10 min; for log kill / antimicrobial effect of the stress inducer after iron pre-incubation: 10 min 1 mM FeCl2 in iso-osmotic saline (130 mM NaCl, pH 5.0), then 10 min a range of concentrations of the stress inducer; for kill by the stress inducer alone: no FeCl2 pre-treatment, 10 min a range of concentrations of the stress inducer, iso-osmotic saline. The text has this: Classical methods for determining antimicrobial effects involve exposure of cells to disinfectant or antiseptic agents contained in tubes or vials, removal of the agents by centrifugation, washing of the cells to remove disinfectant residues, plating of the cells at a number of dilutions onto culture plates, and enumeration of the resulting colonies. Such methods are inadequate for the purposes of the present invention for two principle reasons, namely, treatment of cells in tubes is too lengthy for the determination of rapid effects (e.g., on the order of 1-5 minutes), and treatment and plating are too laborious for the accurate determination of many different interactions in parallel. […] In these experiments, the assays were prepared as follows, and quadruplicate wells were treated in parallel. A high-throughput 96-well liquid outgrowth system was devised for the measurement of bacterial cell killing. Known numbers of living cells were treated, and unknown numbers of surviving cells were quantified by measuring the rate of liquid outgrowth of the culture relative to a standard curve, as determined by optical density. Cells of Escherichia coli (ATCC strain #25404) were grown to mid-log cell density (absorbance of about 0.1 at 600 nm) in 100 mL of Luria Broth (LB) at 37° C. in Erlenmeyer flasks, and then chilled at 0° C. on ice prior to use. “Treatment” plates were prepared as follows. Chilled cells were aliquoted (approximately 50 μL) into wells of a 96-well filtration plate (Multiscreen® (Millipore Corporation, Bedford, Mass.), having a 0.22 μm hydrophilic Durapore® membrane at the bottom of the wells). The LB medium was removed by vacuum filtration, and the remaining cells were washed with 150 μL of an iso-osmotic solution, either sterile saline solution (SSS, 130 mM NaCl, pH 5.0) or sterile HEPES-buffered saline (HBS, 0.595% HEPES, 0.82% NaCl, pH 7.05). The cells on the treatment plate were then exposed to various free iron (for example, FeCl2) and optional stress inducer treatments as described in the examples delineated below. The FeCl2 solutions were always prepared fresh on the day of use from the anhydrous salt. The cells in a set number of wells were not treated; these untreated cells were serially diluted and used to construct a standard curve. “Reading” plates were made from the treatment plate by adding approximately 130 μL of sterile LB medium to each well of three sterile polycarbonate microtiter plates (Corning). […] of the resuspended cells from all wells of the treatment plate were then transferred to a corresponding well on the reading plates, which were then sealed (for example, using polypropylene sealing mats) and incubated at 37° C. with vigorous shaking. Absorbance readings of turbidity (measured at λ=600 nm) were recorded at approximately 45minute intervals over a time course ranging from about two to about seven hours. Cell densities of the wells containing the treated cells were calculated by comparison to the standard curve. Absorbance readings were performed at 600 nm using a standard microtiter plate absorbance reader (Multiskan® microplate reader by Labsystems, Helsinki, FI). The measurements collected for the treated cells were disregarded unless they fell within a region of linear growth in liquid culture, which was individually determined for each time point reading. Generally, acceptable measurements ranged from about 0.020 to about 0.200 OD units. […] Techniques for calculating slopes and determining concentrations from standard curves are known to one skilled in the art, FeCl2 solutions were prepared from the anhydrous salt, and peroxide (H2O2) dilutions are prepared fresh from a 30% w/w stock solution. Cells were plated as described above, then treated with FeCl2 at concentrations ranging from about 1 μM to about 1.024 mM (in HBS). Cells were exposed to the FeCl2 solution for approximately 10 minutes at room temperature (i.e., iron “pre-treatment”).

“Also recorded” adds a separate entry of the source.

Turning to `[Cl][Fe][Cl]` [FeCl2], the antimicrobial effectiveness entry is, setting by setting: (then NaCl near the iso-osmotic point (130 mM) (FIG. 4)) “minimally effective”; (then hypo-osmotic (0 mM NaCl) or hyper-osmotic (600 mM) conditions (FIG. 4)) “maximally effective”. Further, the cell killing result (10 min 1 mM FeCl2 in iso-osmotic saline, then 10 min in a range of osmolarities of sodium chloride (FIG. 4)) is reported as “resulted in killing at all osmolarities”. The “FeCl2 pre-treatment concentration that increases the sensitivity of cells to subsequent H2O2” value (10 min FeCl2 in HBS, then 10 min H2O2 about 73 μM to about 1 mM (FIG. 2B)) is not below 16 µM. Moreover, the “cell killing (decrease in cell viability)” value (FeCl2 alone, about 1 μM to about 1.024 mM in iso-osmotic HBS, 10 min room temperature, no hydrogen peroxide (FIG. 2A)) is recorded as “did not result in appreciable cell killing at any concentration; also recorded: relatively small antimicrobial effect”. Moreover, under “FeCl2 pre-treatment 10 min in HBS, then H2O2 10 min at concentrations as low as 73 μM (FIG. 2A)”, the “reduction of microbial population” value is “reduced the microbial populations significantly”.

Regarding `O=P([O-])([O-])[O-].[Na+].[Na+].[Na+]` [TSP, trisodium phosphate], the “log kill / antimicrobial effect of the stress inducer after iron pre-incubation” value (from here on “log kill / antimicrobial effect”) is “enhanced by pre-incubation of the cells with free iron”.

Turning to lysozyme, the “log kill / antimicrobial effect” value is on record as “highly effective” and the “kill by the stress inducer alone” value is “none of the concentrations of lysozyme used resulted in any kill alone”.

For `OCl` [hypochlorite], the “log kill / antimicrobial effect” value is recorded as “highly effective” and the “kill by the stress inducer alone” value is on record as “none of the concentrations of bleach used resulted in any kill alone”.

Consider `O=C(O)CC(O)(CC(=O)O)C(=O)O` [citric acid], for which the “log kill / antimicrobial effect” value is listed as “potentiated by pre-incubation with iron”.
